Reference: patent US11744818B2, “Application of trans-1,3-dilinolein in the preparation of medicaments for treating gastric cancer, stomachic tonic, health products and foods” (Lanzhou University, priority 2021, dated 2023)

Columns and labels:
[1] = system: human gastric cancer cell line HGC-27; test: Cytotoxicity to HGC-27 cells (MTS, 48 hours); assay type: cell-based; conditions: for killing of gastric cancer cells: concentration of 300 μm and more; for killing effect on HGC-27: 0-500 μM, 48 hours
Procedure: (§1) At 37° C. and 5% CO2, human gastric cancer cell line HGC-27 cells and human gastric mucosal epithelial cell line GES-1 cells (coming from China Center for Type Culture Collection (Wuhan, China)) are respectively cultured in RPMI Medium Modified (Hyclone, SH30809.01) and Dulbecco's Modified Eagle's Medium-high glucose (Sigma, D6429), in which 10% fetal calf serum (Gibco, 10270-106) and 1% penicillin-streptomycin (Gibco, 15140-122) are supplemented.
The cytotoxicity of HGC-27 cells by trans-1,3-dilinolein is determined. 5000 cells are plated in a 96-well plate, and each well is added with 100 μL medium. 12 hours after cell attachment, each well is given 100 μL normal medium that contained different concentrations (0 μM, 50 μM, 100 μM, 200 μM, 300 μM, 400 μM, 500 μM) of trans-1,3-dilinolein and had been preheated, and cultured in incubators under the conditions of 5% CO2, 37° C., normal oxygen and 1% oxygen respectively for 48 hours. The medium in each well is drawn, and serum-free medium is added into each well to formulate 60 μL MTS (Promega) at ⅙ the initial concentration, which are correspondingly incubated in incubators under the conditions of 5% CO2, 37° C., normal oxygen and 1% oxygen for 2 hours. The absorbance at 490 nm is determined with a microplate reader (Thermo Scientific).
(§2) Two-side Student's t-test is conducted by using EXCEL to determine the statistical significance of two groups of measurements. P value<0.05 is considered to be statistically significant. Unless otherwise specified, all data are expressed as mean ±standard deviation.

[2] = system: human gastric mucosal epithelial cell line GES-1; test: Proliferation of GES-1 cells (CCK8, 48 hours); assay type: cell-based; conditions: for effect on the proliferation of GES-1: 25 μM to 400 μm, 48 hours
Procedure: as §1
The cytotoxicity of GES-1 cells by trans-1,3-dilinolein is determined. 10000 cells are plated in a 96-well plate, and each well is added with 100 μL medium. 12 hours after cell attachment, each well is given 100 μL normal medium that contained different concentrations (0 μM, 6.25 μM, 12.5 μM, 25 μM, 50 μM, 100 μM, 200 μM, 400 μM, 800 μM, 1000 μM) of trans-1,3-dilinolein and had been preheated, and cultured in incubators under the conditions of 5% CO2, 37° C., normal oxygen and 1% oxygen respectively for 48 hours. The medium in each well is drawn, and serum-free medium is added into each well to formulate 60 μL CCK8 (ABMole BioScience) at 1/11 the initial concentration, which are correspondingly incubated in incubators under the conditions of 5% CO2, 37° C., normal oxygen and 1% oxygen for 40 minutes. The absorbance at 450 nm is determined with a microplate reader (Thermo Scientific).
as §2

## CCCCC/C=C/C/C=C/CCCCCCCC(=O)OCC(O)COC(=O)CCCCCCC/C=C/C/C=C/CCCCC [trans-1,3-dilinolein, [2-hydroxy-3-[(9E,12E)-octadeca-9,12-dienoyl]oxypropyl](9E,12E)-octadeca-9,12-dienoate]
[1]; hypoxic conditions compared with normal oxygen
  killing of gastric cancer cells: the killing effect is more significant
[1]; normal oxygen
  killing of gastric cancer cells: kills gastric cancer cells significantly
[1]; hypoxic (1% oxygen) compared with normal oxygen, FIG. 4D
  killing effect on HGC-27: stronger killing effect
[1]; normal oxygen, FIG. 4C
  killing effect on HGC-27: concentration-dependent killing effect
[2]; concentration of 300 μm and more
  proliferation of normal gastric mucosal epithelial cells: significantly promote the proliferation
[2]; hypoxic (1% oxygen), FIG. 4B
  effect on the proliferation of GES-1: promotion effects on the proliferation
[2]; normal oxygen, FIG. 4A
  effect on the proliferation of GES-1: promotion effects on the proliferation
